Experimental data reported in patent publication US12441725B2, “ISO-citrate dehydrogenase (IDH) inhibitor” (ZHEJIANG METON PHARMACEUTICAL CO., LTD, priority 2019, dated 2025).

Assays:
[1] = target: T1, IDH (endogenous IDH1 R132C) in HT1080 cell (Homo sapiens, UniProt O75874, R132C); experiment: Cell-based assay for IDH inhibition (decrease of D-2-HG) in HT1080 cells; details: human fibrosarcoma cell line HT1080, 16 hours treatment, D-2-HG by LC-MS, in triplet
T1 construct: which harbor endogenous heterozygous IDH1 R132C and R132H mutation respectively and accumulate D-2-HG
Description: The present disclosure also provides a cell-based method for assaying IDH inhibition and selectivity of the compounds in human fibrosarcoma cell line HT1080 and cholangiocarcinoma cell line HCCC 9810, which harbor endogenous heterozygous IDH1 R132C and R132H mutation respectively and accumulate D-2-HG. Tumor -derived IDH mutant lost its normal activity of producing α-KG, and gained a new activity of producing D-2-HG. D-2-HG is a metabolite specifically elevated in tumor cells expressing mutant IDH1 or IDH2 proteins. When treating such mutant IDH-expressing tumor cells with an effective IDH inhibitor, the synthesis of D-2-HG is blocked, and D-2-HG concentration is decreased by the oxidation reaction catalyzed by the endogenous D-2-HG dehydrogenase.
To perform a cell-based IDH inhibition assay, HT1080 and HCCC 9810 cells (or other cell lines harboring different IDH mutations) are cultured in DMEM supplemented with 10% FBS. The cells are treated with compounds of present disclosure at various different concentrations. 16 hours after the treatment, culture medium supernatants are removed and cell metabolites are extracted by 40% methanol and 40% acetonitrile in water (pre-chilled under −80° C.) at 4° C. for 1 hour. The extract supernatants are collected and cell debris are removed via high speed centrifugation. The resulting metabolite extracts are analyzed on an Agilent LC-MS system (model: 1290-6470) for 2-HG and glutamate concentration. A HILIC-Z column (2.1 mm×100 mm, […]) is employed on HPLC. Mobile phase A is 15 mM CH3COONH4 and 0.3% NH3·H2O in water. Mobile phase B is 15 mM CH3COONH4 and 0.3% NH3·H2O in 90% MeCN/10% H2O solvent. An 19% solvent A and 81% solvent B isocratic gradient method is used at a flow rate of 0.3 ml/min. D-2-HG is ionized under negative ion spray mode and detected through the multiple-reaction monitoring of a mass transition pair at m/z=147.0/128.9 and 147.0/85.1. Glutamate is ionized under ion spray mode and detected on negative polarity multiple-reaction monitoring of a mass transition pair at m/z=146/102 and 146/128 and its level is used to normalize 2-HG concentration. The activity of cellular mutant IDH proteins in the presence of each test compound at different concentrations can be represented by relative D-2-HG concentration to negative control samples (i.e., cells are treated with DMSO only), and the IC50 value could be determined to evaluate the inhibition and selectivity of each test compound on the IDH enzymatic activity.
The IDH inhibition activity of the compounds were assessed in human fibrosarcoma cell line HIT1080 according to Test 3 of the Biological Assay section. The test for IDH inhibition of each compound was carried out in triplet. As used in Table 6, “A” refers to an IDH inhibitory activity with an IC50<0.1 μM; “B” refers to an IDH inhibitory activity with an IC50 from 0.1 μM to 0.5 μM; “C” refers to an IDH inhibitory activity with an IC50 from 0.5 μM to 1 μM; “D” refers to an IDH inhibitory activity with an IC50>1 μM.

IDH1 R132H = target: T2, IDH1 R132H (Homo sapiens, UniProt O75874, R132H); experiment: Biochemical assay for IDH inhibition (NADPH fluorescence), mutant IDH1 R132H; details: 50 nM IDH1-R132H, 1 hour pre-incubation, in triplet
T2 construct: 6xHis
Description: (§1) The present disclosure provides a biochemical assay method for detecting the IDH inhibition and selectivity of the compounds by detecting IDH enzyme activity directly.
(§2) Wild-type IDH enzymes convert NADP^+ to NADPH when catalyzing the α-KG producing reaction. Mutant IDH enzymes convert NADPH to NADP^+ when catalyzing the D-2-HG producing reaction. So, the activity of wild-type and mutant IDH1/2 could be measured by monitoring NADPH level change as NADPH is fluorescent (Excitation 340 nm, Emission 460 nm). By monitoring the change of NADPH level in the reaction, the enzyme activity could be determined rapidly and efficiently and IC50 of a compound could also be assayed.
(§3) The test compounds are prepared into 50 mM stock solutions in DMSO and stored at −20° C. Each test compound stock is further diluted to obtain a 100× stock solution at a concentration of 400 μM, 200 μM, 100 μM, 50 μM, 25 μM, 12.5 μM, 6.25 μM and 3.125 μM, respectively, for the final use on the day of test (the concentration range of 100× stock solutions might be adjusted to cover the estimated IC50 of a specific test compound).
(§4) Inhibition of Mutant IDH1 (R132H or R132C):
(§5) To assay the enzymatic activity of mutant IDH1 proteins, 25 nM IDH1-R132C or 50 nM IDH1-R132H protein solutions are prepared in 20 mM Tris-HCl pH7.5, 150 mM NaCl, 10 mM MgCl2, 1 mM DTT, 0.05 mg/ml BSA and 1.33 mM α-KG. 148 μL 25 nM IDH1-R132C or 50 nM IDH1-R132H protein solutions are mixed with 2 μL DMSO (vehicle control for test compounds) or an above-mentioned 100× stock solution of a test compound and incubated for 1 hour at room temperature. Extra reactions containing 148 μL no-enzyme solution (20 mM Tris-HCl pH7.5, 150 mM NaCl, 10 mM MgCl2, 1 mM DTT, 0.05 mg/ml BSA and 1.33 mM α-KG) and 2 μL DMSO are also set up as background controls. Then each reaction is initiated by adding 50 μL 80 μM NADPH solution prepared in 20 mM Tris-HCl pH7.5, 150 mM NaCl, 10 mM MgCl2, 1 mM DTT and 0.05 mg/ml BSA. BioTek Synergy H1 Microplate reader (BioTek Instruments Inc., Winooski, U.S.) is employed to monitor the NADPH fluorescence (Excitation 340 nm, Emission 460 nm) every 42 seconds for 15 minutes. NADPH change rate is determined according to the linear phase of the fluorescence-time curve and results from the background control reactions are used as background subtraction to calculate the net NADPH change rates of other reactions. The net NADPH change rates from the vehicle control reactions are used as 100% enzymatic activity and thus the relative enzymatic activity of reactions with test compounds added could be determined. Then a dose-response curve is drawn for each test compound and the corresponding IC50 is calculated. The IC50 value is used to evaluate the inhibition and selectivity of each test compound on the IDH enzymatic activity.
(§6) The IDH inhibition activity of the compounds were assessed according to Test 2 of the Biological Assay section. The test for mutant IDH1 R132H and IDH1 R132C inhibition of each compound was carried out in triplet. As used in Table 5, “A” refers to an inhibitory activity against IDH1 R132H or IDH1 R132C with an IC50<0.1 μM; “B” refers to an inhibitory activity against IDH1 R132H or IDH1 R132C with an IC50 from 0.1 μM to 0.5 μM; “C” refers to an inhibitory activity against IDH1 R132H or IDH1 R132C with an IC50 from 0.5 μM to 1 μM; “D” refers to an inhibitory activity against IDH1 R132H or IDH1 R132C with an IC50>1 μM.

IDH1 R132C = target: T3, IDH1 R132C (Homo sapiens, UniProt O75874, R132C); experiment: Biochemical assay for IDH inhibition (NADPH fluorescence), mutant IDH1 R132C; details: 25 nM IDH1-R132C, 1 hour pre-incubation, in triplet
T3 construct: 6xHis
Description: as §1, §2, §3, §4, §5, §6

T2 sequence (O75874 whole entry R132H): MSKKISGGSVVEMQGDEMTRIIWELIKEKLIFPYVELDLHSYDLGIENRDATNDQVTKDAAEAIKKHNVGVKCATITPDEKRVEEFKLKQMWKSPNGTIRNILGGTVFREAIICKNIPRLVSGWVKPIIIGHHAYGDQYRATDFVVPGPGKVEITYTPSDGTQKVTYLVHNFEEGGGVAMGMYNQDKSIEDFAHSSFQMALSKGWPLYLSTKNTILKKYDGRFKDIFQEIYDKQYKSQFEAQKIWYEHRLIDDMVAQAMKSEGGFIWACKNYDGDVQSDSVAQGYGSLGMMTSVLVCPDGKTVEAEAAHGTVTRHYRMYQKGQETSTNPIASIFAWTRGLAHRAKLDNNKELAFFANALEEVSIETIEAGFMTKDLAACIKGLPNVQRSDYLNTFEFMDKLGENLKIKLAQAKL
T3 sequence (O75874 whole entry R132C): as the sequence (O75874 whole entry R132H) above, with H132C counted along it
T1 sequence (O75874 2-414 R132C): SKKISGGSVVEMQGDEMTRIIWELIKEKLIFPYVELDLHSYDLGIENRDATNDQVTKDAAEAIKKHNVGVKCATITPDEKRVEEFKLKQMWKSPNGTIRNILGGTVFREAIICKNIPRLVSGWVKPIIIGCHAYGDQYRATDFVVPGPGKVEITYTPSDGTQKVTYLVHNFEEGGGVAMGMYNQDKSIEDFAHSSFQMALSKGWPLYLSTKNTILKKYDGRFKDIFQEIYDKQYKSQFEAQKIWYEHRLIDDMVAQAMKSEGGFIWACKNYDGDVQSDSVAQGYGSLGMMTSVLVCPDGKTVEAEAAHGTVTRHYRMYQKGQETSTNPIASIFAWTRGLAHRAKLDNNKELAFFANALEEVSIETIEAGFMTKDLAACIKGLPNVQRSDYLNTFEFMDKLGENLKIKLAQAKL

| Structure (SMILES) | IC50 [1] [nM] | IC50 (IDH1 R132H) [nM] | IC50 (IDH1 R132C) [nM] |
| --- | --- | --- | --- |
| CCN1Cc2c(ccnc2N[C@@H](C)c2ccc(Oc3cccc4c3ccn4C)c(F)c2)C1=O [Compound 2, (S)-2-ethyl-4-((1-(3-fluoro-4-((1-methyl-1H-indol-4-yl)oxy)phenyl)ethyl)amino)-2,3-dihydro-1H-pyrrolo[3,4-c]pyridin-1-one] | 500 to 1000 | 100 to 500 | 100 to 500 |
| CCN1Cc2c(ccnc2N[C@@H](C)c2ccc(Oc3cnn(C)c3)c(F)c2)C1=O [Compound 4, (S)-2-ethyl-4-((1-(3-fluoro-4-((1-methyl-1H-pyrazol-4-yl)oxy)phenyl)ethyl)amino)-2,3-dihydro-1H-pyrrolo[3,4-c]pyridin-1-one] | > 1000 | > 1000 | > 1000 |
| CCN1Cc2c(ccnc2N[C@@H](C)c2ccc(OC3Cc4ccccc4C3)c(F)c2)C1=O [Compound 5, (S)-4-((1-(4-((2,3-dihydro-1H-inden-2-yl)oxy)-3-fluorophenyl)ethyl)amino)-2-ethyl-2,3-dihydro-1H-pyrrolo[3,4-c]pyridin-1-one] | > 1000 | 500 to 1000 | 500 to 1000 |
| CCN1Cc2c(ccnc2N[C@@H](C)c2ccc(OC3CCc4ccccc43)c(F)c2)C1=O (stereo partly drawn) [Compound 6, 4-(((1S)-1-(4-((2,3-dihydro-1H-inden-1-yl)oxy)-3-fluorophenyl)ethyl)amino)-2-ethyl-2,3-dihydro-1H-pyrrolo[3,4-c]pyridin-1-one] | > 1000 | 500 to 1000 | > 1000 |
| CCN1Cc2c(ccnc2N[C@@H](C)c2ccc(Oc3ccc(C(C)(C)C)nc3)c(F)c2)C1=O [Compound 7, (S)-4-((1-(4-((6-(tert-butyl)pyridin-3-yl)oxy)-3-fluorophenyl)ethyl)amino)-2-ethyl-2,3-dihydro-1H-pyrrolo[3,4-c]pyridin-1-one] | 500 to 1000 | 100 to 500 | > 1000 |
| CCN1Cc2c(ccnc2N[C@@H](C)c2ccc(Oc3ccc4c(ccn4C(C)C)c3)c(F)c2)C1=O [Compound 9, (S)-2-ethyl-4-((1-(3-fluoro-4-((1-isopropyl-1H-indol-5-yl)oxy)phenyl)ethyl)amino)-2,3-dihydro-1H-pyrrolo[3,4-c]pyridin-1-one] | 100 to 500 | 100 to 500 | 100 to 500 |
| CCN1Cc2c(ccnc2N[C@@H](C)c2ccc(Oc3ccc4c(ccn4CCO)c3)c(F)c2)C1=O [Compound 10, (S)-2-ethyl-4-((1-(3-fluoro-4-((1-(2-hydroxyethyl)-1H-indol-5-yl)oxy)phenyl)ethyl)amino)-2,3-dihydro-1H-pyrrolo[3,4-c]pyridin-1-one] | > 1000 | 500 to 1000 | > 1000 |
| CCN1Cc2c(ccnc2N[C@H](C)c2ccc(Oc3ccccc3)c(F)c2)C1=O [Compound 12, (R)-2-ethyl-4-((1-(3-fluoro-4-phenoxyphenyl)ethyl)amino)-2,3-dihydro-1H-pyrrolo[3,4-c]pyridin-1-one] | > 1000 | > 1000 | > 1000 |
| CCN1Cc2c(ccnc2N[C@@H](C)c2ccc(Cc3ccnc(C(F)(F)F)c3)c(F)c2)C1=O [Compound 53, (S)-2-ethyl-4-((1-(3-fluoro-4-((2-(trifluoromethyl)pyridin-4-yl)methyl)phenyl)ethyl)amino)-2,3-dihydro-1H-pyrrolo[3,4-c]pyridin-1-one] | – | > 1000 | > 1000 |

Other lines, results leading:

| IC50 [1] [nM] | IC50 (IDH1 R132H) [nM] | IC50 (IDH1 R132C) [nM] | Structure (SMILES) |
| --- | --- | --- | --- |
| 500 to 1000 | 100 to 500 | 100 to 500 | CCN1Cc2c(ccnc2N[C@@H](C)c2ccc(Oc3ccc4c(cnn4C)c3)c(F)c2)C1=O [Compound 1, 2-ethyl-4-[[(1S)-1-[3-fluoro-4-(1-methylindazol-5-yl)oxy-phenyl]ethyl]amino]-3H-pyrrolo[3,4-c]pyridin-1-one] |
| 500 to 1000 | 100 to 500 | 100 to 500 | CCN1Cc2c(ccnc2N[C@@H](C)c2ccc(Oc3ccc4c(ccn4C)c3)c(F)c2)C1=O [Compound 3, (S)-2-ethyl-4-((1-(3-fluoro-4-((1-methyl-1H-indol-5-yl)oxy)phenyl)ethyl)amino)-2,3-dihydro-1H-pyrrolo[3,4-c]pyridin-1-one] |
| > 1000 | > 1000 | > 1000 | CCN1Cc2c(ccnc2N[C@@H](C)c2ccc(Oc3ccc4c(c3)ncn4C)c(F)c2)C1=O [Compound 8, (S)-2-ethyl-4-((1-(3-fluoro-4-((1-methyl-1H-benzo[d]imidazol-5-yl)oxy)phenyl)ethyl)amino)-2,3-dihydro-1H-pyrrolo[3,4-c]pyridin-1-one] |
| > 1000 | 100 to 500 | 100 to 500 | CCN1Cc2c(ccnc2N[C@@H](C)c2ccc(Oc3ccc4c(c3)cc(C)n4C)c(F)c2)C1=O [Compound 11, (S)-4-((1-(4-((1,2-dimethyl-1H-indol-5-yl)oxy)-3-fluorophenyl)ethyl)amino)-2-ethyl-2,3-dihydro-1H-pyrrolo[3,4-c]pyridin-1-one] |
